Data reported in PMC9666555, “Genuine selective caspase-2 inhibition with new irreversible small peptidomimetics” (Cell Death & Disease, 2022).

Tests used:
Conditions in all cases: concentrations up to 10 µM
Cathepsin-D = Cathepsin-D (Homo sapiens, UniProt P07339); experiment: Non-caspase enzyme assay, Cathepsin-D; format: biochemical
Procedure: (§1) Stock solutions were stored at −80 °C. […]
(§2) Non-caspase enzyme assays
(§3) The human pro- kallikrein-1 (pro-hK1) was activated in a buffer containing: Tris-HCl 50 mM, CaCl2 10 mM, NaCl 150 mM, Brij-35 0,05% pH 7,5. Human pro-kallikrein-6 and -8 (pro-hK6 and 8 were activated using Lysyl-endopeptidase (Wako- BioProducts®) at a 1/500 weight ratio, in a buffer containing 50 mM Tris and 0,05% Brij-35 (pH 8). Kinetics using non-caspase enzymes for selectivity studies were done according to the following conditions.
(§4) Enzymes Substrates Buffers
(§5) Cathepsine B (0.2 nM) z-RR-AMC 20 µM Acétate de sodium 0,1 M; EDTA 1mM ; […]
(§6) Cathepsine L (1.2 nM) RLR-AMC 25 µM Acétate de sodium 0,1 M; EDTA 1mM ; […]
(§7) Cathepsine D (0.1 nM) Mca-Gly-Ly s-Pro-Ile-Leu-Phe-Phe- Citrate de Sodium 0,1 M; EDTA 2 mM ; Arg-Leu-Lys(Dnp)-D-Arg-NH2 10 µM Brij-35 0,01%; pH 4 hK1 (4 nM) Boc-VPR-AMC 100µM Tris 50mM; Citrate 1M; Brij-35 0.05%; pH7 hK6 (2 nM ) Boc-QAR -AMC 100 µM Tris 50mM; Citrate 1M; Brij-35 0.05%; pH7 hK8 (1 nM) Boc-VPR-AMC 100µM Tris 50mM; Citrate 1M; Brij-35 0.05%; pH7
(§8) Thrombine (10 mU/mL) Boc-VPR-AMC 100µM Tris 50mM; Citrate 1M; Brij-35 0.05%; pH7 Plasmine (4 nM ) Boc-QAR -AMC 100µM Tris 50mM; Citrate 1M; Brij-35 0.05%; pH7 Trypsine (0.1 nM) Boc-QAR -AMC 100µM Tris 50mM; Citrate 1M; Brij-35 0.05%; pH7

Thrombin = target: T1, Thrombin (Homo sapiens, UniProt P00734); experiment: Non-caspase enzyme assay, Thrombin; format: biochemical
T1 construct: The human active Plasmin, Thrombin, and Trypsin; purchased Sigma-Aldrich
Procedure: as §1, §2, §3, §4, §5, §6, §7, §8

Kallikrein-1 = target: T2, Kallikrein-1 (Homo sapiens, UniProt P06870); experiment: Non-caspase enzyme assay, Kallikrein-1; format: biochemical
T2 construct: purchased R&D Systems 2337-SE-010
Procedure: as §1, §2, §3, §4, §5, §6, §7, §8

Cathepsin-L = Cathepsin-L (Homo sapiens, UniProt P07711); experiment: Non-caspase enzyme assay, Cathepsin-L; format: biochemical
Procedure: as §1, §2, §3, §4, §5, §6, §7, §8

Trypsin = experiment: Non-caspase enzyme assay, Trypsin; format: biochemical, human
Procedure: as §1, §2, §3, §4, §5, §6, §7, §8

Sequence of Cathepsin-L (P07711 114-333): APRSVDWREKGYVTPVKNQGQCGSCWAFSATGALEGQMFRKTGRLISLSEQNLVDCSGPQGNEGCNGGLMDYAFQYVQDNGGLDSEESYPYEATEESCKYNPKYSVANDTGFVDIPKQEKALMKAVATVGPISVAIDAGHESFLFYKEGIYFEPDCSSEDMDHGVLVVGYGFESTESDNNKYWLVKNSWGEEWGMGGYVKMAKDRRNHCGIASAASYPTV
T2 sequence (P06870 25-262): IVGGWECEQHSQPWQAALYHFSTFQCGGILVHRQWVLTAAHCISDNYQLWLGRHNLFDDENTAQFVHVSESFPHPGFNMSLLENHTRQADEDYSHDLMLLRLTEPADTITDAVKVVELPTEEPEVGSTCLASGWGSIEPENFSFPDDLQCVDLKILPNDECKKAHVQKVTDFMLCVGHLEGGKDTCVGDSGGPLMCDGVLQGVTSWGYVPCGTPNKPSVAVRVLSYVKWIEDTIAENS
Sequence of Cathepsin-D (P07339 65-412): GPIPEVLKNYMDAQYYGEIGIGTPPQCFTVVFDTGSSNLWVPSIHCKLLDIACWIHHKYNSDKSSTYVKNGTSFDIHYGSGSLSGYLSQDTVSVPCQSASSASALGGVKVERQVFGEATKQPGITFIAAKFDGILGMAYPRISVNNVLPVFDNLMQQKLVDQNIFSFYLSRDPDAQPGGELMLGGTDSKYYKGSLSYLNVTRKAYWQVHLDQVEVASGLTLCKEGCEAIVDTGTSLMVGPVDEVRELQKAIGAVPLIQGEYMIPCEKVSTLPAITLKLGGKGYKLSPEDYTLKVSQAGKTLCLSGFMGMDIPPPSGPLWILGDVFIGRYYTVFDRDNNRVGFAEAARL

CC(C)[C@H](NC(=O)c1ccc2ccccc2n1)C(=O)N[C@@H](CC(=O)O)C(=O)N[C@H](C(=O)N1CC[C@H](CC(C)(C)C)[C@@H]1C(=O)NC(CC(=O)O)C(=O)COc1c(F)cccc1F)C(C)C (some centres unmarked) [LJ3a]
very limited or no effect: effect on Cathepsin-D (Cathepsin-D) | effect on Thrombin (Thrombin) | effect on Kallikrein-1 (Kallikrein-1) | effect on Cathepsin-L (Cathepsin-L) | effect on Trypsin (Trypsin)
